In US20250288572A1, “COMPOSITIONS AND METHODS FOR TREATING PULMONARY VASCULAR DISEASE” (UNIVERSITY OF PITTSBURGH-OF THE COMMONWEALTH SYSTEM OF …, priority 2022, published 2025):
“Also recorded” adds a separate entry of the source.

Experiments:
mitochondrial Complex 1 = experiment: Mitochondrial Complex 1 activity in PAECs; assay type: cell-based, human
Method: Measurement of mitochondrial complex activities: Complex 1 activity of isolated mitochondria were measured using Complex 1 Enzyme Activity Microplate assay kit (Abcam, ab109721) according to the manufacturer's protocol. These enzymes were captured within the wells of the microplate coated by the corresponding complex enzyme antibody, and activities were detected colorimetrically.

[1] = test system: glutathione S-transferase (GST); experiment: Measurement of GST activity in PAECs; assay type: cell-based, human
Method: (§1) BRD2889 (1 uM) vs. vehicle control were added, as indicated, and placed into a hypoxia chamber for 24 h. The hypoxia chamber (modular incubator chamber) was obtained from Billups-Rothenberg Inc. (Del Mar, Cali) and placed in regulated CO2 incubator at 37° C.

[2] = test system: glutathione S-transferase (GST); experiment: Measurement of GST activity in PASMCs; assay type: cell-based, human; details: IL-6/sIL-6R + hypoxia, BRD2889 1 uM
Method: as §1

ISCU [3] = experiment: Immunoprecipitation/immunoblot of glutathionylated ISCU in PAECs; assay type: cell-based, human; design: dose or concentration left out as unconfirmed; details: hypoxic PAECs, BRD2889 (24 h)
Method: Immunoblot and densitometry: Cells were lysed in RIPA buffer (Sigma) along with 1× protease inhibitor cocktail (Sigma). Protein lysate was resolved by gradient 4%-15% SDS-PAGE gels and transferred onto a 0.2 μm PVDF membrane (Bio-Rad). Membranes were blocked in 5% non-fat milk in 1×PBST buffer for one hour at room temperature. Later, they were incubated in the presence of the primary antibody overnight at 4° C., and then appropriate HRP-conjugated secondary antibodies (Life Technologies). The following antibodies were used: human LGALS8 (AF1305, RnD Systems), mouse/rat Lgals8 ([…], Abcam), pSTAT1 (ab29045, Abcam) and STAT1 (ab47425, Abcam), GSTP1 (ab153949, Abcam), ISCU (14812-1-AP, Pointech), Glutathione (ab19534, Abcam), HIF2A (NB100-122, Novous), α-Tubulin (CP06, Millipore sigma), and ACTB (sc-47778, Santa Cruz). […] The images were later quantified using AlphaEaseFC software (Alpha Innotech).
Immunoprecipitation: PAECs were transfected with the indicated combinations of siRNAs by Lipofectamine 2000 (Thermo Fisher Scientific) according to the manufacturer's instructions and/or treated with BRD2889 ([…], 24 h). […] After extensive washing, the immunoprecipitated proteins were analyzed by immunoblotting with the indicated antibodies.

PAECs [4] = experiment: RT-qPCR gene expression in PAECs; assay type: cell-based, human
Method: The hypoxia chamber (modular incubator chamber) was obtained from Billups-Rothenberg Inc. (Del Mar, Cali) and placed in regulated CO2 incubator at 37° C.
RT-qPCR analysis: Cells were lysis in 1 ml of QiaZol reagent (Qiagen). Total RNA content was extracted using the RNeasy kit (Qiagen), according to the manufacturer's instructions. Total RNA concentration was determined using a BioTek Synergy multimode plate reader. Messenger RNAs were reverse transcribed to generate cDNA using the Multiscript RT kit (Thermo Fisher Scientific). cDNA for specific gene targets was amplified and quantified via fluorescently-labeled Taqman primer sets and Taqman fast advanced master mix (Thermo Fisher Scientific) using an Applied Biosystems QuantStudio 6 Flex Real-Time PCR System.

[5] = test system: monocrotaline-exposed pulmonary arterial hypertension rats; experiment: Monocrotaline (MCT) pulmonary arterial hypertension rat model, dosing Days 12-26
Method: Measurement of GST activity: The GST activity from lung tissue and PAECs was assayed using GST assay kit (Cayman, MI, USA) per the manufacturer's instructions.

PAECs [6] = experiment: BrdU growth (proliferation) assay in PAECs; assay type: cell-based, human
Method: BrdU growth assay: Cell proliferation was assayed relative to day 0 using a BrdU Cell Proliferation Assay Kit (#6813, Cell Signaling) according to the manufacturer's protocol after incubation for 2 h with BrdU.

ISCU [7] = experiment: Immunoblot and densitometry of ISCU and GSTP1 in PASMCs; assay type: cell-based, human; details: IL-6/sIL-6R + hypoxia, BRD2889 1 uM
Method: as §1
Immunoblot and densitometry: Cells were lysed in RIPA buffer (Sigma) along with 1× protease inhibitor cocktail (Sigma). Protein lysate was resolved by gradient 4%-15% SDS-PAGE gels and transferred onto a 0.2 μm PVDF membrane (Bio-Rad). Membranes were blocked in 5% non-fat milk in 1×PBST buffer for one hour at room temperature. Later, they were incubated in the presence of the primary antibody overnight at 4° C., and then appropriate HRP-conjugated secondary antibodies (Life Technologies). The following antibodies were used: human LGALS8 (AF1305, RnD Systems), mouse/rat Lgals8 ([…], Abcam), pSTAT1 (ab29045, Abcam) and STAT1 (ab47425, Abcam), GSTP1 (ab153949, Abcam), ISCU (14812-1-AP, Pointech), Glutathione (ab19534, Abcam), HIF2A (NB100-122, Novous), α-Tubulin (CP06, Millipore sigma), and ACTB (sc-47778, Santa Cruz). The immunoreactive bands were visualized with the Chemidoc XRS+ system (Bio-Rad) using SuperSignal West Femto chemiluminescent substrates (Thermo Fisher Scientific). The images were later quantified using AlphaEaseFC software (Alpha Innotech).

[8] = hypoxic PAECs with siRNA knockdown of ISCU
[9] = I-BET762 30 mg/kg daily i.p. or BRD2889 5 mg/kg i.p. every 5 days, Days 12-26

SMILES: COc1ccc(C#CC2CCCN(C(=O)/C=C/c3cc(OC)c(OC)c(OC)c3)C2=O)cc1 (stereo not shown) [BRD2889, (E)-3-((4-methoxyphenyl)ethynyl)-1-(3-(3,4,5-trimethoxyphenyl)acryloyl)piperidin-2-one]
- mitochondrial Complex 1 activity (mitochondrial Complex 1; PAECs, IL-6/sIL-6R + hypoxia): partially rescued mitochondrial Complex 1 activity; also recorded: reversing the IL-6/R+hypoxia-mediated decrease
- mitochondrial Complex 1 activity (mitochondrial Complex 1; hypoxic PAECs): reversed the decrease; also recorded: reversed hypoxic alterations
- mitochondrial Complex 1 activity (mitochondrial Complex 1; [8]): did not reverse the hypoxia-induced decrease
- GST activity ([1]; PAECs, IL-6/sIL-6R + hypoxia, BRD2889 1 uM): reversed the increase in GSTP1 activity; also recorded: reversed the IL-6/R+ hypoxia-mediated increase
- GST enzyme activity ([1]; hypoxic PAECs): reduced the hypoxic increase in GST enzyme activity; also recorded: reversed hypoxic alterations
- GST activity [2]: failed to rescue ISCU or alter GST activity; also recorded: did not affect
- ISCU glutathionylation (α-GSH immunoblot after α-ISCU pulldown) (ISCU [3]): converse reduction of glutathionylation; also recorded: reversed these findings; also recorded: reversal of the hypoxic induction of ISCU glutathionylation
- inflammatory gene transcripts (EDN1, VCAM1, ICAM1) (PAECs [4]; IL-6/sIL-6R + hypoxia): normalized this upregulation
- ISCU transcript (PAECs [4]; hypoxia 48 hrs, BRD2889 5 uM): fully reversing the hypoxic decrease of ISCU; also recorded: rescued by BRD2889
- expression of C43 genes MID2, BANP, AGTRAP (PAECs [4]; hypoxia 48 hrs, BRD2889 5 uM): unaffected in hypoxia by BRD2889
- mTOR transcript (PAECs [4]; hypoxia 48 hrs, BRD2889 5 uM): partially reversing the decrease of mTOR; also recorded: rescued by BRD2889
- endothelial ISCU (immunofluorescence) ([5]; BRD2889 5 mg/kg i.p. every 5 days): increased
- lung GST activity ([5]; BRD2889 5 mg/kg i.p. every 5 days, 5 mg/kg): reduced; also recorded: decreased
- transcript levels of injury markers of liver (Got, Gpt1), kidney (Cst3, Lcn2), intestines (Ldha), tissue toxicity ([5]; BRD2889 vs VC, RT-qPCR): no indication of overt tissue toxicities
- Fulton index (RV/LV+S) [5, 9]: reducing; also recorded: reduced
- arteriolar muscularization (α-SMA) [5, 9]: reducing; also recorded: reduced
- cleaved caspase-3 (CC-3), endothelial apoptosis [5, 9]: reducing; also recorded: decreased
- right ventricular systolic pressure (RVSP) [5, 9]: reducing; also recorded: reduced
- aortic blood pressure (mean arterial pressure, MAP) ([5]; vs vehicle control): without significant alterations
- heart rate ([5]; vs vehicle control): without significant alterations
- proliferation (BrdU incorporation) (PAECs [6]; PAECs, IL-6/sIL-6R + hypoxia): increased proliferation; also recorded: reversing
- proliferation (BrdU incorporation) (PAECs [6]; hypoxic PAECs): reversed the decrease; also recorded: reversed hypoxic alterations
- proliferation (BrdU incorporation) (PAECs [6]; [8]): did not reverse the hypoxia-induced decrease
- GSTP1 protein expression (ISCU [7]): did not affect
- ISCU protein (ISCU [7]): failed to rescue ISCU
